Measurements published in patent publication US10556907B2 (AbbVie Inc., priority 2015, dated 2020).

What was measured:
Assay in all cases: Method 1: intracellular Ca2+ release (FLIPR, Calcium 5) in recombinant CHO-K1 cells
Type in all cases: cell-based
human S1PR3 receptor = molecular target: T1, human S1PR3 receptor (Homo sapiens, UniProt Q99500); details: (1): determined with method 1; read-out: S1P3 EC50
T1 construct: host or cells: CHO-K1
Method in brief: (§1)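 Read-out: FLIPR Tetra fluorescence of Calcium 5-loaded CHO-K1 cells (receptor + aequorin + Gq/i5) after agonist addition at RT. Values are EC50s from nonlinear fits normalized to the phospho-fingolimod reference curve. Buffer HBSS with Ca2+/Mg2+, Hepes, probenecid, 0.1% BSA, pH 7.4.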

human S1PR5 receptor = molecular target: T2, human S1PR5 receptor (Homo sapiens, UniProt Q9H228); details: agonist potency, determined with method 1 (symbols A-D); read-out: S1P5 EC50 range
T2 construct: host or cells: CHO-K1
T2 sequence (Q9H228 whole entry): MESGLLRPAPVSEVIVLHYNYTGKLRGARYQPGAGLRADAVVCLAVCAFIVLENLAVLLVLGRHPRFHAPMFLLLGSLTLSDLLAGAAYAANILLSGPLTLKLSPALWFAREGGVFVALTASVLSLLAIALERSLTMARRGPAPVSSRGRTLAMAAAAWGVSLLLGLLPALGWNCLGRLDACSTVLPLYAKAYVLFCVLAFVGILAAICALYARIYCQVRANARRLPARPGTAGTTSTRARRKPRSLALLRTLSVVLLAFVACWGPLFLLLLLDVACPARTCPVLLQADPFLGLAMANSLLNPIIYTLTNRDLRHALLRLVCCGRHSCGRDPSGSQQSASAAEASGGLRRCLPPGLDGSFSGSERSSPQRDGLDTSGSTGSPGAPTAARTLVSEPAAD
Method in brief: as §1

human S1PR1 receptor = molecular target: T3, human S1PR1 receptor (Homo sapiens, UniProt P21453); details: (1): determined with method 1; read-out: S1P1 EC50
T3 construct: host or cells: CHO-K1
T3 sequence (P21453 whole entry): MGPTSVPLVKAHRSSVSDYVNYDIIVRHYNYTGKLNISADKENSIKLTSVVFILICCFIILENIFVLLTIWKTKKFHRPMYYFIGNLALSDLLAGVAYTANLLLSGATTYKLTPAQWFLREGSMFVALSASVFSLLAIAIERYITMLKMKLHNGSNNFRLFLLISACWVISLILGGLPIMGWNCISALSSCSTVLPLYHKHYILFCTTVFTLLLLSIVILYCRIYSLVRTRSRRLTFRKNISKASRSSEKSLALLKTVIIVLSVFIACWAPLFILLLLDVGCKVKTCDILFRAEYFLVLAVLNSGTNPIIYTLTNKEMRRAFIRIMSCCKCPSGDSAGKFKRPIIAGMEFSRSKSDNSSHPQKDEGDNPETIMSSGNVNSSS
Method in brief: as §1

human S1PR4 receptor = molecular target: T4, human S1PR4 receptor (Homo sapiens, UniProt O95977); details: (1): determined with method 1; read-out: S1P4 EC50
T4 construct: host or cells: CHO-K1
T4 sequence (O95977 1-384): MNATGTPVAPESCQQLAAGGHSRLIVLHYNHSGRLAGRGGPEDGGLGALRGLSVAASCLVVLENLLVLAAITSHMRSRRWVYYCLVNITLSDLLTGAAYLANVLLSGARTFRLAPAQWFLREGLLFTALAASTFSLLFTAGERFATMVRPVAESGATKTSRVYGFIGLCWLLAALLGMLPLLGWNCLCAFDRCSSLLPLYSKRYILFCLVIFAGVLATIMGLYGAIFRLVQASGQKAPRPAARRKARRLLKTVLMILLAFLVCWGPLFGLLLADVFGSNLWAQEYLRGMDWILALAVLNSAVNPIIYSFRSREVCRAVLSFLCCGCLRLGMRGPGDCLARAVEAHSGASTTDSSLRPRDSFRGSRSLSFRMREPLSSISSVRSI
Method in brief: as §1

T1 sequence (Q99500 whole entry): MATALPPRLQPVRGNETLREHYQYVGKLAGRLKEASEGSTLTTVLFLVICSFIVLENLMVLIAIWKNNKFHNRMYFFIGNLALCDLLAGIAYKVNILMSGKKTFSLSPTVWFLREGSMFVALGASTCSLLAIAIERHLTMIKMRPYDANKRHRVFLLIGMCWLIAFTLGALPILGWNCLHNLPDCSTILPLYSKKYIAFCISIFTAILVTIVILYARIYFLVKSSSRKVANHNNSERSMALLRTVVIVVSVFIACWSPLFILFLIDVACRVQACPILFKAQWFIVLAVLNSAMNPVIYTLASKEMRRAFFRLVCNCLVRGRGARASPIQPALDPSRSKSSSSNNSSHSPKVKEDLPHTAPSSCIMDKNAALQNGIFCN

| Structure (SMILES) | EC50 (human S1PR3 receptor) | EC50 (human S1PR5 receptor) | EC50 (human S1PR1 receptor) | EC50 (human S1PR4 receptor) |
| --- | --- | --- | --- | --- |
| O=C(O)CCN1CCc2nc(-c3ccc(OCc4ccccc4OC(F)(F)F)cc3)ccc2C1 [Compound 155, 3-(2-(4-((2-trifluoromethoxybenzyl)oxy)phenyl)-7,8-dihydro-1,6-naphthyridin-6(5H)-yl)propanoic acid] | > 1000 nM | < 10 nM | > 1000 nM | > 1000 nM |
| O=C(O)CCN1CCc2nc(-c3ccc(OCc4cccc(C(F)(F)F)c4)cc3)ccc2C1 [Compound 157, 3-(2-(4-((3-trifluoromethylbenzyl)oxy)phenyl)-7,8-dihydro-1,6-naphthyridin-6(5H)-yl)propanoic acid] | > 1000 nM | < 10 nM | > 1000 nM | > 1000 nM |
| Cc1cc(COc2ccc(-c3ccc4c(n3)CCN(CCC(=O)O)C4)cc2)cc(OC(F)(F)F)c1 [Compound 160, 3-(2-(4-((3-trifluoromethoxy-5-(methyl)benzyl)oxy)phenyl)-7,8-dihydro-1,6-naphthyridin-6(5H)-yl)propanoic acid] | > 1000 nM | 10 to 100 nM | > 1000 nM | > 1000 nM |
| Cc1cc(OC(F)(F)F)ccc1COc1ccc(-c2ccc3c(n2)CCN(CCC(=O)O)C3)cc1 [Compound 161, 3-(2-(4-((2-methyl-4-(trifluoromethoxy)benzyl)oxy)phenyl)-7,8-dihydro-1,6-naphthyridin-6(5H)-yl)propanoic acid] | > 1000 nM | < 10 nM | > 1000 nM | > 1000 nM |
| O=C(O)CCN1CCc2nc(-c3ccc(OCc4ccccc4C(F)F)cc3)ccc2C1 [Compound 165, 3-(2-(4-((2-difluoromethylbenzyl)oxy)phenyl)-7,8-dihydro-1,6-naphthyridin-6(5H)-yl)propanoic acid] | > 1000 nM | < 10 nM | > 1000 nM | > 1000 nM |
| Cc1cc(-c2ccc3c(n2)CCN(CCC(=O)O)C3)ccc1OCc1ccc(C(F)(F)F)cc1 [Compound 167, 3-(2-(3-methyl-4-((4-(trifluoromethyl)benzyl)oxy)phenyl)-7,8-dihydro-1,6-naphthyridin-6(5H)-yl)propanoic acid] | > 1000 nM | < 10 nM | > 1000 nM | > 1000 nM |
| Cc1cc(-c2cc3c(cn2)CN(CCC(=O)O)CC3)ccc1OCc1ccc(C(F)(F)F)cc1 [Compound 173, 3-(6-((4(4-trifluoromethylbenzyl)oxy)-3-methylphenyl)-3,4-dihydro-2,7-naphthyridin-2(1H)-yl)propanoic acid] | > 1000 nM | < 10 nM | > 1000 nM | > 1000 nM |
| O=C(O)CCN1CCc2cc(-c3ccc(OCc4ccc(Cl)cc4)cc3)ncc2C1 [Compound 174, 3-(6-((4(4-chlorobenzyl)oxy)phenyl)-3,4-dihydro-2,7-naphthyridin-2(1H)-yl)propanoic acid] | > 1000 nM | < 10 nM | > 1000 nM | > 1000 nM |
| O=C(O)CCN1CCc2cc(-c3ccc(OCc4cccc(Cl)c4)cc3)ncc2C1 [Compound 175, 3-(6-(4-((3-chlorobenzyl)oxy)phenyl)-3,4-dihydro-2,7-naphthyridin-2(1H)-yl)propanoic acid] | > 1000 nM | < 10 nM | > 1000 nM | > 1000 nM |
| O=C(O)CCN1CCc2nc(-c3ccc(OCc4ccc(Cl)cc4)cc3)cnc2C1 [Compound 178, 3-(2-(4-((4-chlorobenzyl)oxy)phenyl)-7,8-dihydropyrido[3,4-b]pyrazin-6(5H)-yl)propanoic acid] | > 1000 nM | < 10 nM | > 1000 nM | > 1000 nM |
| CC(CCN1CCc2nc(-c3ccc(OCc4ccccc4)cc3)c(F)cc2C1)C(=O)O (centres unmarked) [Compound 180, 4-(2-(4-(benzyloxy)phenyl)-3-fluoro-7,8-dihydro-1,6-naphthyridin-6(5H)-yl)-2-methylbutanoic acid] | > 1000 nM | < 10 nM | < 1000 nM | > 1000 nM |
| CC(CCN1CCc2nc(-c3ccc(OCc4ccc(Cl)cc4)cc3)c(F)cc2C1)C(=O)O (centres unmarked) [Compound 181] | > 1000 nM | < 10 nM | < 1000 nM | > 1000 nM |

The next lines start with the values.

| EC50 (human S1PR3 receptor) | EC50 (human S1PR5 receptor) | EC50 (human S1PR1 receptor) | EC50 (human S1PR4 receptor) | Structure (SMILES) |
| --- | --- | --- | --- | --- |
| > 1000 nM | 10 to 100 nM | > 1000 nM | > 1000 nM | O=C(O)CCN1CCc2nc(-c3ccc(OCc4cccc(F)c4)cc3F)ccc2C1 [Compound 145, 3-(2-(2-fluoro-4-((3-fluorobenzyl)oxy)phenyl)-7,8-dihydro-1,6-naphthyridin-6(5H)-yl)propanoic acid] |
| > 1000 nM | < 10 nM | > 1000 nM | > 1000 nM | CC(C)(C)c1ccc(COc2ccc(-c3ccc4c(n3)CCN(CCC(=O)O)C4)cc2)cc1 [Compound 156, 3-(2-(4-((4-(tert-butyl)benzyl)oxy)phenyl)-7,8-dihydro-1,6-naphthyridin-6(5H)-yl)propanoic acid] |
| > 1000 nM | < 10 nM | > 1000 nM | > 1000 nM | O=C(O)CCN1CCc2nc(-c3ccc(OCc4cccc(C(F)F)c4)cc3)ccc2C1 [Compound 159, 3-(2-(4-((3-difluoromethylbenzyl)oxy)phenyl)-7,8-dihydro-1,6-naphthyridin-6(5H)-yl)propanoic acid] |
| > 1000 nM | < 10 nM | > 1000 nM | > 1000 nM | O=C(O)CCN1CCc2nc(-c3ccc(OCc4ccc5c(c4)CCC5)cc3)ccc2C1 [Compound 162, 3-(2-(4-((5-indanyl)methoxy)phenyl)-7,8-dihydro-1,6-naphthyridin-6(5H)-yl)propanoic acid] |
| > 1000 nM | < 10 nM | > 1000 nM | > 1000 nM | O=C(O)CCN1CCc2nc(-c3ccc(OCc4ccccc4OC(F)F)cc3)ccc2C1 [Compound 163, 3-(2-(4-((2-difluoromethoxybenzyl)oxy)phenyl)-7,8-dihydro-1,6-naphthyridin-6(5H)-yl)propanoic acid] |
| > 1000 nM | < 10 nM | > 1000 nM | > 1000 nM | O=C(O)CCN1CCc2nc(-c3ccc(OCc4ccc(C(F)F)cc4)cc3)ccc2C1 [Compound 166, 3-(2-(4-((4-difluoromethylbenzyl)oxy)phenyl)-7,8-dihydro-1,6-naphthyridin-6(5H)-yl)propanoic acid] |
| > 1000 nM | < 10 nM | > 1000 nM | > 1000 nM | Cc1cc(-c2ccc3c(n2)CCN(CCC(=O)O)C3)ccc1OCc1ccc(Cl)cc1 [Compound 169, 3-(2-(4-((4-chlorobenzyl)oxy)-3-methylphenyl)-7,8-dihydro-1,6-naphthyridin-6(5H)-yl)propanoic acid] |
| > 1000 nM | < 10 nM | > 1000 nM | > 1000 nM | Cc1cc(-c2cc3c(cn2)CN(CCC(=O)O)CC3)ccc1OCc1ccc(Cl)cc1 [Compound 172, 3-(6-(4-((4-chlorobenzyl)oxy)-3-methylphenyl)-3,4-dihydro-2,7-naphthyridin-2(1H)-yl)propanoic acid] |
| > 1000 nM | < 10 nM | > 1000 nM | > 1000 nM | O=C(O)CCN1CCc2cc(-c3ccc(OCc4cccc(F)c4)cc3)ncc2C1 [Compound 176, 3-(6-(4-((3-fluorobenzyl)oxy)phenyl)-3,4-dihydro-2,7-naphthyridin-2(1H)-yl)propanoic acid] |
| > 1000 nM | < 10 nM | > 1000 nM | > 1000 nM | O=C(O)CCN1CCc2nc(-c3ccc(OCc4ccccc4)cc3)cnc2C1 [Compound 177, 3-(2-(4-(benzyloxy)phenyl)-7,8-dihydropyrido[3,4-b]pyrazin-6(5H)-yl)propanoic acid] |
| < 1000 nM | < 10 nM | > 1000 nM | > 1000 nM | O=C(O)CCN1CCc2nc(-c3ccc(OCc4cccc(Cl)c4)cc3)cnc2C1 [Compound 179, 3-(2-(4-((3-chlorobenzyl)oxy)phenyl)-7,8-dihydropyrido[3,4-b]pyrazin-6(5H)-yl)propanoic acid] |
| > 1000 nM | < 10 nM | > 1000 nM | > 1000 nM | CC(CCN1CCc2nc(-c3ccc(OCc4cccc(Cl)c4)cc3)c(F)cc2C1)C(=O)O (centres unmarked) [Compound 182, 4-(2-(4-((3-chlorobenzyl)oxy)phenyl)-3-fluoro-7,8-dihydro-1,6-naphthyridin-6(5H)-yl)-2-methylbutanoic acid] |
| > 1000 nM | < 10 nM | > 1000 nM | > 1000 nM | O=C(O)CCN1CCc2nc(-c3ccc(OCc4ccccc4)cc3)c(F)cc2C1 [Compound 186, 3-(2-(4-(benzyloxy)phenyl)-3-fluoro-7,8-dihydro-1,6-naphthyridin-6(5H)-yl)propanoic acid] |
| > 1000 nM | < 10 nM | > 1000 nM | > 1000 nM | O=C(O)CCN1CCc2nc(-c3ccc(OCc4cccc(Cl)c4)cc3)c(F)cc2C1 [Compound 189, 3-(2-(4-((3-chlorobenzyl)oxy)phenyl)-3-fluoro-7,8-dihydro-1,6-naphthyridin-6(5H)-yl)propanoic acid] |
